Source: the supplement of paper PMC11061612

Legend:
Test in all cases: combination Emax (second highest fraction inhibited in the dose matrix, 72 h); higher = more inhibition; extreme values may be limits of the assay
[1] = tested on: KGN (Other Solid Carcinomas)
Procedure, shortened: (§1)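 Cell lines grown in DMEM/F12 or RPMI with 10% FBS were plated in 1536-well plates and held 24 hours at 37°C, 5% CO2 before 72 hours of exposure to two-drug dose matrices, with DMSO typically at 0.2%. CellTiter-Glo 2.0 luminescence gave viability, which was converted to inhibition. Vehicle wells were set to 0 and blank wells to 1. Combination Emax is the second-highest inhibition in the matrix, and Bliss excess is the observed combination effect minus the expected EA + EB − EA·EB, where EA and EB are the single-agent effects.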

[2] = tested on: Hey (Ovarian Carcinoma)
Procedure, shortened: as §1

[3] = tested on: MOG-G-UVW (Low Grade Glioma)
Procedure, shortened: as §1

[4] = tested on: SNU-387 (Hepatocellular Carcinoma)
Procedure, shortened: as §1

[5] = tested on: MDA-MB-453 (Breast Carcinoma)
Procedure, shortened: as §1

[6] = tested on: G-401 (Other Solid Carcinomas)
Procedure, shortened: as §1

[7] = tested on: NCI-H1838 (Lung Adenocarcinoma)
Procedure, shortened: as §1

[8] = tested on: COLO-668 (Small Cell Lung Carcinoma)
Procedure, shortened: as §1

[9] = tested on: NCI-H1355 (Lung Adenocarcinoma)
Procedure, shortened: as §1

[10] = tested on: SK-LU-1 (Lung Adenocarcinoma)
Procedure, shortened: as §1

[11] = tested on: KMRC-1 (Kidney Carcinoma)
Procedure, shortened: as §1

[12] = tested on: HCC1937 (Breast Carcinoma)
Procedure, shortened: as §1

[13] = tested on: MOLT-4 (T-Lymphoblastic Leukemia)
Procedure, shortened: as §1

[14] = tested on: NCI-H1993 (Lung Adenocarcinoma)
Procedure, shortened: as §1

[15] = tested on: HAL-01 (B-Lymphoblastic Leukemia)
Procedure, shortened: as §1

[16] = tested on: OE33 (Esophageal Adenocarcinoma)
Procedure, shortened: as §1

[17] = tested on: COLO-679 (Melanoma)
Procedure, shortened: as §1

[18] = tested on: SKN (Other Solid Carcinomas)
Procedure, shortened: as §1

[19] = tested on: HCC1500 (Breast Carcinoma)
Procedure, shortened: as §1

[20] = tested on: EFO-21 (Ovarian Carcinoma)
Procedure, shortened: as §1

SMILES	combination Emax [1]	combination Emax [2]	combination Emax [3]	combination Emax [4]	combination Emax [5]	combination Emax [6]	combination Emax [7]	combination Emax [8]	combination Emax [9]	combination Emax [10]	combination Emax [11]	combination Emax [12]	combination Emax [13]	combination Emax [14]	combination Emax [15]	combination Emax [16]	combination Emax [17]	combination Emax [18]	combination Emax [19]	combination Emax [20]
COc1nnc2ccc(N3CCC(c4ccc(OCCN5CCN(C)C(=O)[C@H]5C)cc4)CC3)nn12 [AZD5153] + CCN(CCO)CCCOc1ccc2c(Nc3cc(CC(=O)Nc4cccc(F)c4)[nH]n3)ncnc2c1 [AZD2811] (first compound max 1 µM, 7x7, partner max 1 µM)	0.691	0.618	0.802	0.487	0.677	0.806	0.441	0.264	0.509	0.404	0.316	0.383	1	0.479	0.752	0.301	0.485	0.608	0.41	0.425
COc1nnc2ccc(N3CCC(c4ccc(OCCN5CCN(C)C(=O)[C@H]5C)cc4)CC3)nn12 [AZD5153] + C[C@@H]1COCCN1C2=NC(=NC(=C2)C3(CC3)[S@](=N)(=O)C)C4=C5C=CNC5=NC=C4 [AZD6738] (first compound max 1 µM, 7x7, partner max 10 µM)	0.822	0.796	0.769	0.524	0.837	0.924	0.441	0.917	0.639	0.516	0.456	0.434	0.999	0.738	0.965	0.731	0.718	0.71	0.454	0.488
COc1nnc2ccc(N3CCC(c4ccc(OCCN5CCN(C)C(=O)[C@H]5C)cc4)CC3)nn12 [AZD5153] + Cc1c2c(nn1C)CSCc1cc(n(C)n1)CSc1cc(c3ccccc3c1)OCCCc1c(C(=O)O)n(C)c3c-2c(Cl)ccc13 [AZD5991] (first compound max 1 µM, 7x7, partner max 1 µM)	0.742	0.598	0.763	0.614	0.953	0.956	0.731	0.564	0.358	0.388	0.322	0.507	0.95	0.552	0.873	0.242	0.874	0.568	0.696	0.414
COc1nnc2ccc(N3CCC(c4ccc(OCCN5CCN(C)C(=O)[C@H]5C)cc4)CC3)nn12 [AZD5153] + Cn1cnc2c(F)c(Nc3ccc(Br)cc3Cl)c(C(=O)NOCCO)cc21 [Selumetinib] (first compound max 1 µM, 7x7, partner max 10 µM)	0.729	0.726	0.658	0.514	0.614	0.841	0.394	0.899	0.483	0.46	0.346	0.396	0.162	0.915	0.849	0.414	0.884	0.65	0.387	0.439
Cc1c2c(nn1C)CSCc1cc(n(C)n1)CSc1cc(c3ccccc3c1)OCCCc1c(C(=O)O)n(C)c3c-2c(Cl)ccc13 [AZD5991] + C1CN(CCC1(C(=O)N[C@@H](CCO)C2=CC=C(C=C2)Cl)N)C3=NC=NC4=C3C=CN4 [Capivasertib] (first compound max 1 µM, 7x7, partner max 3 µM)	0.329	0.156	0.444	0.345	0.61	0.56	0.306	0.303	0.227	0.303	0.432	0.456	0.92	0.461	0.527	0.112	0.19	0.455	0.377	0.179
Cc1c2c(nn1C)CSCc1cc(n(C)n1)CSc1cc(c3ccccc3c1)OCCCc1c(C(=O)O)n(C)c3c-2c(Cl)ccc13 [AZD5991] + C=CCn1c(=O)c2cnc(Nc3ccc(N4CCN(C)CC4)cc3)nc2n1-c1cccc(C(C)(C)O)n1 [AZD1775] (first compound max 1 µM, partner max 1 µM)	0.725	0.59	0.761	0.581	0.4	0.901	0.835	0.464	0.57	0.575	0.275	0.617	1	0.629	0.907	0.573	0.529	0.436	0.49	0.552
